Experimental data taken from patent US20250186391A1, “ORAL COMPLEMENT FACTOR D INHIBITORS” (BioCryst Pharmaceuticals, Inc., priority 2019, published 2025).

Target: Factor D (Homo sapiens (Human), UniProt P00746)
Test: Factor D esterolytic assay
Assay type: biochemical
Conditions: Z-Lys-SBzl substrate, 100 mM HEPES, 500 mM NaCl, pH 7.5, 10% DMSO; tested a minimum of three times; read-out: Measured Ki (IC50) Value for Compounds: IC50
Summary of the method: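 Chromogenic thioesterase read-out: Z-Lys-SBzl (1.29 mM) hydrolysis by human Factor D, thiol detected with DTNB at 405 nm (690 nm background subtracted) for 600 s. Run in 100 mM HEPES, 500 mM NaCl, pH 7.5, 10% DMSO, substrate added immediately or after room-temperature preincubation. IC50 from percent inhibition versus enzyme alone, n≥3.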

Sequence of Factor D (P00746 26-253): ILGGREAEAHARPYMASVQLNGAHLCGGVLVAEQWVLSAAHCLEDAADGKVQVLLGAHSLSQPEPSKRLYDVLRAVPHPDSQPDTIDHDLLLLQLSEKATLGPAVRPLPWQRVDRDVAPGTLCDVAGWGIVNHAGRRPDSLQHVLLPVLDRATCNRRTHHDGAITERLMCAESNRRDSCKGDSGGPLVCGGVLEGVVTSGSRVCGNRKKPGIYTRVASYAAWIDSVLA

| SMILES | IC50 [nM] |
| --- | --- |
| COc1ccc(CC(=O)O)c(OCc2c(C)oc3c(NCC4CC4)cc(-c4cccc(CN)c4)cc23)c1 [Compound 274c, 2-(2-((5-(3-(aminomethyl)phenyl)-7-((cyclopropylmethyl)amino)-2-methylbenzofuran-3-yl)methoxy)-4-methoxyphenyl)acetic acid] | < 1000 |
| C[C@@H](N)c1cccc(-c2ccc3occ(COc4ccccc4CC(=O)O)c3c2)c1 [Compound 52c, (R)-2-(2-((5-(3-(1-aminoethyl)phenyl)benzofuran-3-yl)methoxy)phenyl)acetic acid] | < 1000 |
| CC(C)n1nc(COc2ccccc2CC(=O)O)c2cc(-c3cc(O)cc(CN)c3)ccc21 [Compound 243g, 2-(2-((5-(3-(aminomethyl)-5-hydroxyphenyl)-1-isopropyl-1H-indazol-3-yl)methoxy)phenyl)acetic acid] | < 1000 |
| NCc1cccc(-c2ccc3occ(COc4cc(OC(F)(F)F)ccc4CC(=O)O)c3c2)c1 [Compound 110d, 2-(2-((5-(3-(aminomethyl)phenyl)benzofuran-3-yl)methoxy)-4-(trifluoromethoxy)phenyl)acetic acid] | < 1000 |
| CC(C)n1nc(COc2ccccc2CC(=O)O)c2cc(-c3cccc(CN)c3)ccc21 [Compound 182e, 2-(2-((5-(3-(aminomethyl)phenyl)-1-isopropyl-1H-indazol-3-yl)methoxy)phenyl)acetic acid] | < 1000 |
| NCc1cc(-c2cc3c(COc4ccccc4CC(=O)O)cccc3o2)ccn1 [Compound 290h, 2-(2-((2-(2-(aminomethyl)pyridin-4-yl)benzofuran-4-yl)methoxy)phenyl)acetic acid] | < 1000 |
| NCc1cccc(-c2cc(-c3cccc(CN)c3)c3oc(COc4ccccc4CC(=O)O)cc3c2)c1 [Compound 8e, 2-(2-((5,7-bis(3-(aminomethyl)phenyl)benzofuran-2-yl)methoxy)phenyl)acetic acid] | < 1000 |

Further lines, results first:

| IC50 [nM] | SMILES |
| --- | --- |
| < 1000 | NCc1cccc(-c2cc(-c3cc4ccccc4[nH]3)c3occ(COc4ccccc4CC(=O)O)c3c2)c1 [Compound 137c, 2-(2-((5-(3-(aminomethyl)phenyl)-7-(1H-indol-2-yl)benzofuran-3-yl)methoxy)phenyl)acetic acid] |
| > 10000 | NCc1cccc(-c2cccc3occ(COc4ccccc4CC(=O)O)c23)c1 [Compound 97h, 2-(2-((4-(3-(aminomethyl)phenyl)benzofuran-3-yl)methoxy)phenyl)acetic acid] |
| < 1000 | NCc1cccc(-c2cc(OC[C@H]3CCCO3)c3occ(COc4ccccc4CC(=O)O)c3c2)c1 [Compound 76i, (R)-2-(2-((5-(3-(aminomethyl)phenyl)-7-((tetrahydrofuran-2-yl)methoxy)benzofuran-3-yl)methoxy)phenyl)acetic acid] |
| < 1000 | NCc1cccc(-c2cc(OCC3CC3)c3occ(COc4ccccc4CC(=O)O)c3c2)c1 [Compound 159f, 2-(2-((5-(3-(aminomethyl)phenyl)-7-(cyclopropylmethoxy)benzofuran-3-yl)methoxy)phenyl)acetic acid] |
| < 1000 | NCc1cccc(-c2cc(NCC3CCOC3)c3occ(COc4ccccc4CC(=O)O)c3c2)c1 (centres unmarked) [Compound 147d, 2-(2-((5-(3-(aminomethyl)phenyl)-7-(((tetrahydrofuran-3-yl)methyl)amino)benzofuran-3-yl)methoxy)phenyl)acetic acid] |
| < 1000 | CC(C)Cn1cc(-c2cc(-c3cccc(CN)c3)cc3c(COc4ccccc4CC(=O)O)coc23)cn1 [Compound 129c, 2-(2-((5-(3-(aminomethyl)phenyl)-7-(1-isobutyl-1H-pyrazol-4-yl)benzofuran-3-yl)methoxy)phenyl)acetic acid] |
| < 1000 | COc1ccc(CC(=O)O)c(OCc2coc3ccc(-c4cccc(CN)c4)cc23)c1 [Compound 48b, 2-(2-((5-(3-(aminomethyl)phenyl)benzofuran-3-yl)methoxy)-4-methoxyphenyl)acetic acid] |
